Laboratory results as given in PMC5698469, “Carrageenan catabolism is encoded by a complex regulon in marine heterotrophic bacteria” (Nature Communications, 2017).

What was measured:
ZGAL_4655 = biological target: T1, ZGAL_4655 (Zobellia galactanivorans, UniProt G0L4M6); assay: beta-galactosidase activity on artificial substrate; assay type: biochemical
T1 construct: gene bgaF
T1 sequence (G0L4M6 18-845): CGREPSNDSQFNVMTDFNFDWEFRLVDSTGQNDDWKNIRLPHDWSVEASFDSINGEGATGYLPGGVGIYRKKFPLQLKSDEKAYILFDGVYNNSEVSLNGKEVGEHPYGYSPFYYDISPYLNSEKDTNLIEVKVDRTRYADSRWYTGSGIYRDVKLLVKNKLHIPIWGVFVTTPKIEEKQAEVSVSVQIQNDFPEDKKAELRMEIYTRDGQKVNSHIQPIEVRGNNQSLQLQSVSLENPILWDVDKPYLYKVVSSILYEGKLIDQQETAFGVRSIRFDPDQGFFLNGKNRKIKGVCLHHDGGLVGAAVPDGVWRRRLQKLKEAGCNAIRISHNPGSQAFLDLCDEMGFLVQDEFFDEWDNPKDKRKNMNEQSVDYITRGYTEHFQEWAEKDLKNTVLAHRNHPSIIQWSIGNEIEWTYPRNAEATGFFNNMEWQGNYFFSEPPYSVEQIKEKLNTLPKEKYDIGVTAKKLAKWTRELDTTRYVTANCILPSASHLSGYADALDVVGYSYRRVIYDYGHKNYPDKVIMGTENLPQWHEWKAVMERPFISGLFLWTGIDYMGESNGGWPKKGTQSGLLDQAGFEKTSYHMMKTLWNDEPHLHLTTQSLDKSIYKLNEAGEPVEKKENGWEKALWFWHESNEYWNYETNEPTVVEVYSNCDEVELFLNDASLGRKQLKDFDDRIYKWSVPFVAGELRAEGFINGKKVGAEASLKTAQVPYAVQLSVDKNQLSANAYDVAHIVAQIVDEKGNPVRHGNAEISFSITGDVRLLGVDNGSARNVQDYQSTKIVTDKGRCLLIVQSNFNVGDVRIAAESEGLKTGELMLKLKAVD

ZGAL_3633 = biological target: T2, ZGAL_3633 (Zobellia galactanivorans, UniProt G0L1N0); assay: as above; assay type: biochemical
T2 construct: gene bgaB
T2 sequence (G0L1N0 21-825): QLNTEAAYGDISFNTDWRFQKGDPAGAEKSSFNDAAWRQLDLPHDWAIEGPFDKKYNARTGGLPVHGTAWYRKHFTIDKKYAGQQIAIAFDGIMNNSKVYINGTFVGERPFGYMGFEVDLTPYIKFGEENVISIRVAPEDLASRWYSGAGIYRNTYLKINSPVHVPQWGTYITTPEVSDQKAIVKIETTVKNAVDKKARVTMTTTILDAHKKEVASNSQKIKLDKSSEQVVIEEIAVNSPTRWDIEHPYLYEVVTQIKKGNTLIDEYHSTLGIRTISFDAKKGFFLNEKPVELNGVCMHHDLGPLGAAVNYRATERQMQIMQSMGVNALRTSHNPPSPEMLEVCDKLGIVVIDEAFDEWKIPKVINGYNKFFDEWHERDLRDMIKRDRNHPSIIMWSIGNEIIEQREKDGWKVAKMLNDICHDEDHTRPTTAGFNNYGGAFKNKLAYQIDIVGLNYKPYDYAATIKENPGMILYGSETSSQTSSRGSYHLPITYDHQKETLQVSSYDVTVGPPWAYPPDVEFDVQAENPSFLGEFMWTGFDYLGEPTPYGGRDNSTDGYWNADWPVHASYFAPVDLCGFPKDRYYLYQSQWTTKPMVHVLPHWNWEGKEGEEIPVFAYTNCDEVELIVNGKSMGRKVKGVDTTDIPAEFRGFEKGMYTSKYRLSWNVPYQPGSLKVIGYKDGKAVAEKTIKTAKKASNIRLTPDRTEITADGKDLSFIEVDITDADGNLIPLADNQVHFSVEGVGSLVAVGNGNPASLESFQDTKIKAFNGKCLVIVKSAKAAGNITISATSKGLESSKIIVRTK

In the case of O=[N+]([O-])c1ccc(O[C@@H]2O[C@H](CO)[C@H](O)[C@H](O)[C@H]2O)cc1 [pNP-beta-D-galactopyranoside], the “beta-galactosidase activity on artificial substrate” value (ZGAL_4655) is reported as “recombinant enzymes displayed beta-galactosidase activity on an artificial substrate (pNP-beta-D-galactopyranoside” and the “beta-galactosidase activity on artificial substrate” value (ZGAL_3633) is reported as “recombinant enzymes displayed beta-galactosidase activity on an artificial substrate (pNP-beta-D-galactopyranoside”.
